Experimental data taken from patent US12655116B2, “Substituted isophthalic acid diamides” (Bayer Aktiengesellschaft, priority 2020, dated 2026).

Legend:
POLCO [1] = assay: Pre-emergence herbicidal action against POLCO; format: in vivo, Polygonum convolvulus; conditions: Fallopia convolvulus, 504 h
Method in brief: (§1)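 Herbicidal effect was assessed 3 weeks after treatment by visual comparison with untreated controls, 100% denoting dead plants. Aqueous WP or EC preparations had been applied at 600 to 800 l/ha with 0.2% wetting agent to the soil covering freshly sown seeds.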

AMARE [2] = assay: Post-emergence herbicidal action against AMARE; format: in vivo, Amaranthus retroflexus; conditions: Amaranthus retroflexus, 504 h, visual assessment about 3 weeks after treatment, 100% = plants have died, 0% = like control plants
Method in brief: (§2)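 Herbicidal effect was scored visually in percent after about 3 weeks in the greenhouse. Plants had been raised in sandy loam and treated post-emergence at the one-leaf stage with formulated compound at 600 to 800 l/ha water plus 0.2% wetting agent.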

AVEFA = assay: Pre-emergence herbicidal action against AVEFA; format: in vivo, Avena fatua; conditions: Avena fatua, 504 h, pre-emergence; for pest or weed control at 320 g/ha: scored visually after 3 weeks, 100% = plants have died, 0% = like control plants
Method in brief: as §1

ABUTH [3] = assay: Post-emergence herbicidal action against ABUTH; format: in vivo, Abutilon theophrasti; conditions: Abutilon theophrasti, 504 h, visual assessment about 3 weeks after treatment vs untreated controls; for pest or weed control at 20 g/ha: dosage 20 g/ha; for pest or weed control at 80 g/ha: dosage 80 g/ha
Method in brief: as §2

AMARE [4] = assay: Pre-emergence herbicidal action against AMARE; format: in vivo, Amaranthus retroflexus; conditions: Amaranthus retroflexus, 504 h, 100% = plants have died, 0% = like control plants; for pest or weed control at 320 g/ha: scored visually after 3 weeks
Method in brief: as §1

ABUTH [5] = assay: Pre-emergence herbicidal action against ABUTH; format: in vivo, Abutilon theophrasti; conditions: Abutilon theophrasti, 504 h; for pest or weed control at 80 g/ha: scored visually after 3 weeks vs untreated controls (100% = plants have died, 0% = like control plants); for pest or weed control at 320 g/ha: Dosage: 320 g/ha, scored visually after 3 weeks
Method in brief: as §1

HORMU [6] = assay: Pre-emergence herbicidal action against HORMU; format: in vivo, Hordeum murinum; conditions: Hordeum murinum, 504 h, pre-emergence
Method in brief: as §1

ALOMY [7] = assay: Post-emergence herbicidal action against ALOMY; format: in vivo, Alopecurus myosuroides; conditions: Alopecurus myosuroides, 504 h, visual assessment about 3 weeks after treatment vs untreated controls; for pest or weed control at 80 g/ha: dosage 80 g/ha
Method in brief: as §2

ECHCG [8] = assay: Post-emergence herbicidal action against ECHCG; format: in vivo, Echinochloa crus-galli; conditions: Echinochloa crus-galli, 504 h; for pest or weed control at 80 g/ha: dosage 80 g/ha
Method in brief: as §2

VERPE [9] = assay: Pre-emergence herbicidal action against VERPE; format: in vivo, Veronica persica; conditions: Veronica persica, 504 h; for pest or weed control at 320 g/ha: dosage 320 g/ha
Method in brief: as §1

ALOMY [10] = assay: Pre-emergence herbicidal action against ALOMY; format: in vivo, Alopecurus myosuroides; conditions: Alopecurus myosuroides, 504 h, pre-emergence; for pest or weed control at 80 g/ha: scored visually after 3 weeks vs untreated controls (100% = plants have died, 0% = like control plants); for pest or weed control at 320 g/ha: scored visually after 3 weeks, 100% = plants have died, 0% = like control plants
Method in brief: as §1

SETVI [11] = assay: Post-emergence herbicidal action against SETVI; format: in vivo, Setaria viridis; conditions: Setaria viridis, 504 h, dosage 80 g/ha
Method in brief: as §2

HORMU [12] = assay: Post-emergence herbicidal action against HORMU; format: in vivo, Hordeum murinum; conditions: Hordeum murinum, 504 h, dosage 80 g/ha
Method in brief: as §2

VIOTR [13] = assay: Post-emergence herbicidal action against VIOTR; format: in vivo, Viola tricolor; conditions: Viola tricolor, 504 h
Method in brief: as §2

STEME = assay: Pre-emergence herbicidal action against STEME; format: in vivo, Stellaria media; conditions: Stellaria media, 504 h; for pest or weed control at 80 g/ha: dosage 80 g/ha; for pest or weed control at 320 g/ha: dosage 320 g/ha
Method in brief: as §1

ECHCG [14] = assay: Pre-emergence herbicidal action against ECHCG; format: in vivo, Echinochloa crus-galli; conditions: Echinochloa crus-galli, 504 h
Method in brief: as §1

SETVI [15] = assay: Pre-emergence herbicidal action against SETVI; format: in vivo, Setaria viridis; conditions: Setaria viridis, 504 h; for pest or weed control at 320 g/ha: dosage 320 g/ha
Method in brief: as §1

VERPE [16] = assay: Post-emergence herbicidal action against VERPE; format: in vivo, Veronica persica; conditions: Veronica persica, 504 h
Method in brief: as §2

VIOTR [17] = assay: Pre-emergence herbicidal action against VIOTR; format: in vivo, Viola tricolor; conditions: Viola tricolor, 504 h; for pest or weed control at 80 g/ha: dosage 80 g/ha; for pest or weed control at 320 g/ha: dosage 320 g/ha
Method in brief: as §1

LOLRI = assay: Pre-emergence herbicidal action against LOLRI; format: in vivo, Lolium rigidum; conditions: Lolium rigidum, 504 h, 320 g/ha
Method in brief: as §1

POLCO [18] = assay: Post-emergence herbicidal action against POLCO; format: in vivo, Polygonum convolvulus; conditions: Fallopia convolvulus, 504 h, dosage 80 g/ha
Method in brief: as §2

[19] = scored visually after 3 weeks vs untreated controls
[20] = 100% = plants have died, 0% = like control plants

Row | SMILES | pest or weed control at 20 g/ha (AMARE [2]) | pest or weed control at 80 g/ha (AMARE [2]) | pest or weed control at 80 g/ha (AVEFA) | pest or weed control at 320 g/ha (AVEFA) | pest or weed control at 20 g/ha (ABUTH [3]) | pest or weed control at 80 g/ha (ABUTH [3]) | pest or weed control at 80 g/ha (AMARE [4]; [19]) | pest or weed control at 320 g/ha (AMARE [4]) | pest or weed control at 80 g/ha (ABUTH [5]) | pest or weed control at 320 g/ha (ABUTH [5]; [20]) | pest or weed control at 80 g/ha (HORMU [6]) | pest or weed control at 320 g/ha (HORMU [6]) | pest or weed control at 80 g/ha (ALOMY [7]) | pest or weed control at 80 g/ha (ECHCG [8]) | pest or weed control at 320 g/ha (VERPE [9]) | pest or weed control at 80 g/ha (ALOMY [10]) | pest or weed control at 320 g/ha (ALOMY [10]) | pest or weed control at 80 g/ha (SETVI [11]) | pest or weed control at 80 g/ha (HORMU [12]) | pest or weed control at 80 g/ha (VIOTR [13]) | other results
1 | CCCn1nnnc1NC(=O)c1ccc(C(F)(F)F)c(C(N)=O)c1Cl [Example 3-338] | 90% | 100% | 90% | 100% | 90% | 100% | 100% | 100% | 100% | 100% | 80% | 100% | 100% | 80% | 100% | 80% | 100% | 90% | 100% | 100% | pest or weed control at 80 g/ha (POLCO [1]; dosage 80 g/ha): 80%; pest or weed control at 320 g/ha (POLCO [1]; dosage 320 g/ha): 80%; pest or weed control at 5 g/ha (ABUTH [3]; dosage 5 g/ha): 90%; pest or weed control at 20 g/ha (AMARE [4]; 20 g/ha, scored visually after 3 weeks vs untreated controls): 80%; pest or weed control at 20 g/ha (ABUTH [5]; dosage 20 g/ha, scored visually after 3 weeks vs untreated controls, 100% = plants have died, 0% = like control plants, read-out: Pre-emergence action against ABUTH (herbicidal activity in percent)): 90%; pest or weed control at 80 g/ha (VERPE [9]; dosage 80 g/ha): 90%; pest or weed control at 20 g/ha (VIOTR [13]; 20 g/ha): 90%; pest or weed control at 80 g/ha (STEME): 90%; pest or weed control at 320 g/ha (STEME): 100%; pest or weed control at 320 g/ha (ECHCG [14]): 100%; pest or weed control at 320 g/ha (SETVI [15]): 100%; pest or weed control at 20 g/ha (VERPE [16]): 90%; pest or weed control at 80 g/ha (VERPE [16]): 90%; pest or weed control at 80 g/ha (VIOTR [17]): 90%; pest or weed control at 320 g/ha (VIOTR [17]): 100%
2 | CNC(=O)c1c(C(F)(F)F)ccc(C(=O)Nc2nnnn2C)c1SC [Example 1-81] | 90% | 90% | 90% | 100% | 80% | 90% | 100% | 100% | 100% | 100% | 80% | 100% | 90% | 90% | 100% | 80% | 100% | 90% | 80% | 80% | pest or weed control at 320 g/ha (LOLRI): 80%; pest or weed control at 80 g/ha (POLCO [18]): 90%; pest or weed control at 20 g/ha (ALOMY [7]; dosage 20 g/ha): 80%; pest or weed control at 20 g/ha (ECHCG [8]; dosage 20 g/ha): 80%; pest or weed control at 80 g/ha (STEME): 100%; pest or weed control at 320 g/ha (STEME): 100%; pest or weed control at 80 g/ha (ECHCG [14]; 80 g/ha): 100%; pest or weed control at 320 g/ha (ECHCG [14]): 100%; pest or weed control at 80 g/ha (SETVI [15]; dosage 80 g/ha): 100%; pest or weed control at 320 g/ha (SETVI [15]): 100%; pest or weed control at 20 g/ha (VERPE [16]): 80%; pest or weed control at 80 g/ha (VERPE [16]): 90%; pest or weed control at 80 g/ha (VIOTR [17]): 90%; pest or weed control at 320 g/ha (VIOTR [17]): 100%
